In experiment [1] the target is T1, TmTrpRS (TM0492) (Thermotoga maritima, UniProt Q9WYW2).
T1 construct: gene trpS; full-length with noncleavable N-terminal tag MGSDKIHHHHHH (kept in crystal), expressed in E. coli DL41; native TTG start codon lies in forward primer after the tag; model residues 0-328, 113-119 disordered; homodimer
T1 sequence (Q9WYW2 1-328): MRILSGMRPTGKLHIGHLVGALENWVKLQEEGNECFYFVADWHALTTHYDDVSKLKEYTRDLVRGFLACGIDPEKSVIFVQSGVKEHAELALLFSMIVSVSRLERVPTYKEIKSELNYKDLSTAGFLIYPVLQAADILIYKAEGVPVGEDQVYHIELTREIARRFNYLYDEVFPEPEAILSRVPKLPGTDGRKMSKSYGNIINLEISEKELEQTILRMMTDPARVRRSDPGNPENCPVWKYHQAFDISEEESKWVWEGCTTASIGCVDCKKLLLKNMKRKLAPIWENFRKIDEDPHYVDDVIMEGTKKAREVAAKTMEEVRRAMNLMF
Put plainly: X-ray crystal structure, […] Å; X-ray fluorescence scan; mass spectrometry. It is filed as binding. Conditions: TAB domain; chelated by Cys236, Cys259, Cys266, Cys269; co-purified; crystallised at pH 6.5, 277 K.

The target in experiment [2] is T1, TmTrpRS (TM0492). Nature of the experiment: X-ray crystal structure, […] Å. Conditions: active site (Rossmann-fold domain); endogenously bound, not added; crystallised at pH 6.5, 277 K. It counts as binding.

Turning to `[S]12[Fe]3[S]4[Fe]1[S]1[Fe]2[S]3[Fe]41` [[4Fe–4S] cluster], the “X-ray crystal structure, 2.50 Å; X-ray fluorescence scan; mass spectrometry” value on TmTrpRS (TM0492) [1] was “The [4Fe–4S] cluster is chelated by the side chains of Cys236, Cys259, Cys266 and Cys269”. For `N[C@@H](Cc1c[nH]c2ccccc12)C(=O)O` [L-tryptophan], the “X-ray crystal structure, 2.50 Å” value at TmTrpRS (TM0492) [2] is reported as “the structure revealed a bound L-tryptophan molecule in the Trp-binding pocket of the active site”.

The values are drawn from article PMC2954223, “Structure of a tryptophanyl-tRNA synthetase containing an iron–sulfur cluster” (Acta Crystallographica Section F: Structural Biology and …, 2010).
